# Reference: US12128018B2, “Combination of a selective histone deacetylase 3 (HDAC3) inhibitor and an immunotherapy agent for the treatment of cancer” (KDAc Therapeutics, Inc., priority 2018, dated 2024)
# What was measured:
# [1] = system: Twenty-six syngeneic cells lines; experiment: viability of syngeneic cell lines; type: cell-based; conditions: 10 μM
# HDAC2 = HDAC2 (Homo sapiens (Human), UniProt Q92769); experiment: non-trypsin coupled in-vitro HDAC enzymatic endpoint assay (Caliper LabChip EZ-Reader); type: biochemical; conditions: 3 hrs preincubation, Substrate A 2 μM
# Method: (§7) In some experiments, the following non-trypsin coupled in-vitro HDAC enzymatic endpoint assay was used to assay the compounds described herein. Below is a standardized protocol for running HDAC selectivity panel on Caliper LabChip EZ-Reader Instrument.
# (§8) Substrate A was prepared as 2 mM in DMSO. Its final concentration in the assay for HDACs 1,2,3,6 is 2 μM.
# (§9) LBH was used as quench inhibitor to stop the reaction at the end point.
# (§10) The protocol was carried out as follows: • 1. Caliper LabChip and 1 μM Marker (peptide substrate in separation buffer) were prepared for instrument run. • 2. Warm up Caliper HAB buffer to room temperature • 3. […] Add 10 μl 3× solution acetylated substrate to initiate the reaction for 50 minutes. • 5. […] Mix plate • 7. Read plate on EZ Reader instrument. Separate substrate and product peaks by capillary electrophoresis and read fluorescence from both substrate and product. • 8. Run parameters were as follows:
# [2] = system: P388D1 cells and RENCA cells; experiment: cytotoxicity, percent of viable cells; type: cell-based, murine; conditions: various concentrations (FIG. 4)
# HDAC1 = HDAC1 (Homo sapiens (Human), UniProt Q13547); experiment: non-trypsin coupled in-vitro HDAC enzymatic endpoint assay (Caliper LabChip EZ-Reader); type: biochemical; conditions: 3 hrs preincubation, Substrate A 2 μM
# Method: as §7, §8, §9, §10
# [3] = system: MHC class II (IA-IE) in RENCA cells; experiment: in vitro induction of MHC class II (IA-IE) in RENCA cells (FACS); type: cell-based, murine
# Method: (§1) Cell Culture and Compound Treatment for MHC II Induction
# (§2) Human and murine tumor cell lines were obtained from the Shanghai Institutes for Biological Sciences (SIBS) or American Type Culture Collection (ATCC) and maintained in a humidified 5% CO2 incubator at 37° C. All of the human cell lines were derived from human B cell lymphomas: OCI-Ly19, OCI-Ly7, OCI-Ly18, RL, SU-DHL6, and MD901. The murine tumor cell lines were of varied origin: CT-26 (colon carcinoma), RENCA (renal cell carcinoma), P388D1 (lymphoblast of monocytes and macrophages), MPC-11 (plasmacytoma, myeloma), L5178 (thymic lymphoma), and J588 (plasmacytoma, myeloma).
# (§3) On Day 0, T25 flasks were seeded at the following cell densities:
# (§4) On Day 1, cells were treated with I-1 compound diluted in DMSO/PBS (final concentration of DMSO in the media was 0.19%). The cells were treated with I-1 compound for 72 hours. The adherent cells were dissociated with 1 mL/T25 flask of Cell Dissociation buffer (GIBCO) at 37° C. Four mL of culture media was added to each flask, samples were aliquoted FACS analysis. […]
# (§5) Cells were counted to determine cell number and viability with Vi-cell (Beckman). […]
# (§6) Cells were incubated for 1 hour at 4° C., protected from light. […] Samples were analyzed immediately using FACS machine. The data were analyzed with BD Accuri C6 software and FlowJo_V10.
# HDAC3 = HDAC3 (Homo sapiens (Human), UniProt O15379); experiment: non-trypsin coupled in-vitro HDAC enzymatic endpoint assay (Caliper LabChip EZ-Reader); type: biochemical; conditions: 3 hrs preincubation, Substrate A 2 μM
# Method: as §7, §8, §9, §10
# plasma exposure (PK) = type: in vivo; conditions: FIG. 13
# Method: 1) For pharmacokinetics (PK): 2 hrs after the first treatment, satellite time point (Day 11) and after the final time point (Day 14) 100 μl blood was collected from the I-1 treatment groups (3 mice/group), then centrifuged to get about 50 μl plasma for PK analysis.
# [4] = tolerability and exposure relative to NOAEL
# [5] = system: MHC Class II expression across multiple cell lines; experiment: FACS detection of MHC II on human and murine tumor cell lines; type: cell-based; conditions: 72 hours treatment (FIG. 1)
# Method: as §1, §2, §3, §4, §5, §6
# [6] = system: MHC class II (IA-IE) in P388D1 cells; experiment: in vitro induction of MHC class II (IA-IE) in P388D1 cells (FACS); type: cell-based, murine
# Method: as §1, §2, §3
# On Day 1, cells were treated with I-1 compound diluted in DMSO/PBS (final concentration of DMSO in the media was 0.19%). The cells were treated with I-1 compound for 72 hours. The adherent cells were dissociated with 1 mL/T25 flask of Cell Dissociation buffer (GIBCO) at 37° C. Four mL of culture media was added to each flask, samples were aliquoted FACS analysis. For suspension cells, samples were aliquoted into 50 mL conical tubes for FACS analysis.
# FACS Detection of MHC II on Human and Murine Cells (IA/IE on Murine Cells)
# Cells were counted to determine cell number and viability with Vi-cell (Beckman). After washing once with 10 mL cold FACS staining buffer (PBS+0.2% BSA), liquid was aspirated and the cells were resuspended in enough cold FACS staining buffer to reach a final cell density of ˜1×10^7 viable cells/mL. 50 μL/well (˜500 k/well) of cells were added to a 96-well u-bottomed plate and the cells were stained as follows, according to manufacturer's instructions: • Sample 1: Unstained • Sample 2: stained with anti MHC II antibody (PE anti-human HLA-DR, Clone: G46-6, Becton Dickinson; PE anti-mouse I-A/I-E, Clone: M5/114.15.2, Becton Dickinson) • Sample 3: stained with isotype control
# as §6
# HDAC2, sequence (Q92769 whole entry, species assumed): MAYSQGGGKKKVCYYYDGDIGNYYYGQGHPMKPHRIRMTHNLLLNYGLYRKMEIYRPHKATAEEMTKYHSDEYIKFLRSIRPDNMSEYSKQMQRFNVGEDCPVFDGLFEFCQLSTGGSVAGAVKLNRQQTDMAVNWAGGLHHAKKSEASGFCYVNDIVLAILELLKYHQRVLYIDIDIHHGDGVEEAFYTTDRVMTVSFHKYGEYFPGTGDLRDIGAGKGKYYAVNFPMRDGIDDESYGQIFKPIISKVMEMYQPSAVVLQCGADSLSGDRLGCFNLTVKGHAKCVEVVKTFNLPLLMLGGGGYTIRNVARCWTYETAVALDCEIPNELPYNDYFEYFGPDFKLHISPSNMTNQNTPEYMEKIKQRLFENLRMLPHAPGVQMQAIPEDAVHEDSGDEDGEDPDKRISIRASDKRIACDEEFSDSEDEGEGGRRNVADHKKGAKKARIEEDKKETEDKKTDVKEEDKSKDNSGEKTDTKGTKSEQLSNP
# HDAC1, sequence (Q13547 whole entry, species assumed): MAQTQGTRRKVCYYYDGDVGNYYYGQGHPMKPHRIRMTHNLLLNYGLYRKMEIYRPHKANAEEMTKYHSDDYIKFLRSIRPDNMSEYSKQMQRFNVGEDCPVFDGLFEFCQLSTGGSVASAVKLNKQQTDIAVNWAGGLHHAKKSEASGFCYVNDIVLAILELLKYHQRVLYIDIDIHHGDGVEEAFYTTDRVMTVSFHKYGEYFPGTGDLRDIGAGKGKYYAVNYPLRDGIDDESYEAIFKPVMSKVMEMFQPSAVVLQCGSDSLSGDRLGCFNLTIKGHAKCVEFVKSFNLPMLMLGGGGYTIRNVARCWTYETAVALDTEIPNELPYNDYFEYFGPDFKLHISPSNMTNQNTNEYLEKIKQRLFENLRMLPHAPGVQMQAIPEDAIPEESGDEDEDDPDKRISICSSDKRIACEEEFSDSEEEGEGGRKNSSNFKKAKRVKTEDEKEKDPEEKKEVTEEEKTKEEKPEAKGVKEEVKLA
# HDAC3, sequence (O15379 whole entry, species assumed): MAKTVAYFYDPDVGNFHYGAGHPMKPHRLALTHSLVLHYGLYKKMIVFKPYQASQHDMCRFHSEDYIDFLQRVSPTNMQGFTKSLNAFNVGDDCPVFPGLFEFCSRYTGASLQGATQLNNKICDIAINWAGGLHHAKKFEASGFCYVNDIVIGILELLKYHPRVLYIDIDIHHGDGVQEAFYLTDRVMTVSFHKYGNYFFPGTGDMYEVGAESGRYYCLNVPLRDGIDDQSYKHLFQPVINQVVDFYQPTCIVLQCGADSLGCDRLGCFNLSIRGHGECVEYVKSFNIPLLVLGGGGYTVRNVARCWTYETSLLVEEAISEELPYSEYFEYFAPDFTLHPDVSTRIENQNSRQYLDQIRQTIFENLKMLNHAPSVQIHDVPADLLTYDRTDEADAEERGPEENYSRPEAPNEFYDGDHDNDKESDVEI
# HDAC3, sequence (Q9Y618 395-489 partner, species assumed): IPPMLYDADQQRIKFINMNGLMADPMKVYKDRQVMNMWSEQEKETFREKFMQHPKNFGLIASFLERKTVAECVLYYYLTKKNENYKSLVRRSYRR
Structure (SMILES),impact on viability [1],IC50 (HDAC2) [nM],cytotoxicity (percent of viable cells) [2],IC50 (HDAC1) [nM],fold more cells positive for MHC class II (IA-IE) ([3]; 1 μM I-1),fold more cells positive for MHC class II (IA-IE) ([3]; 3 μM I-1),IC50 (HDAC3) [nM],plasma exposure (plasma exposure (PK)),"tolerability ([4]; 25 and 50 mg/kg, orally, BID)","tolerated exposures relative to tolerated dose of a clinical HDAC 1,2,3 inhibitor ([4]; FIG. 13)","levels showing efficacy relative to NOAEL (no adverse effect level) ([4]; rat NOAEL, FIG. 13)",increase in MHC Class II expression [5],fold more cells positive for MHC class II (IA-IE) ([6]; 120 nM I-1),fold more cells positive for MHC class II (IA-IE) ([6]; 3 μM I-1),MHC class II protein levels (geometric mean MFI) ([6]; various concentrations (FIGS. 14 and 15))
CC(=O)Nc1ccc(C(=O)Nc2ccc(F)cc2N)cc1 [Compound I-1],minimal impact on viability,1510,generally not cytotoxic,2190,about 2 ×,about 6 ×,61,"above K, and below NOAEL",well tolerated,greater than 4 ×,below rat NOAEL,20-100%,about 4 ×,about 13 ×,
"Nc1cc(F)ccc1NC(=O)/C=C/c1cnn(C/C=C/c2ccccc2)c1 [RGFP966, reference compound]",,,,,,,,,,,,,,,capable of increasing MHC class II protein levels
